According to patent publication US20260184725A1, “CYCLIC 2-AMINOPYRIMIDINE COMPOUND AND PHARMACEUTICAL COMPOSITION AND USE THEREOF” (SHANGHAI INSTITUTE OF ORGANIC CHEMISTRY, CHINESE ACADEMY OF …, priority 2023, published 2026):

How the values were obtained:
Format in all cases: biochemical
[1] = biological target: T1, EGFR^WT (Homo sapiens, UniProt P00533); assay: ELISA kinase activity inhibition, wild-type EGFR; details: ATP 5 μM, read-out: The average IC50 value (nM) for inhibiting the activity of different tyrosine kinases, EGFR^WT
T1 construct: purchased Eurofins
Procedure: (§1) EGFR (WT) is a wild-type epidermal growth factor receptor.
(§2) Enzyme-Linked Immunosorbent Assay (ELISA) was used to detect the inhibitory effect of compounds on kinase activity.
(§3) The main experimental steps were as follows: Enzyme reaction substrate Poly (Glu, Tyr)4:1 was diluted with potassium free PBS (10 mM sodium phosphate buffer, 150 mM NaCl, pH 7.2-7.4) to 20 μg/mL, and reacted at 37° C. for 12 hours to 16 hours to coat the enzyme-linked immunosorbent assay plate. ATP solution (final concentration 5 μM) diluted with reaction buffer (50 mM HEPES pH 7.4, 50 mM MgCl2, 0.5 mM MnCl2, 0.2 mM Na3VO4, 1 mM DTT) was added to each well, followed by the test compound or solvent control, then the kinase reaction was initiated and the plate was shaken at 37° C. for 1 hour. The plate was washed three times with T-PBS, then added antibody PY99. The plate was shaken at 37° C. for 0.5 hours. After washing the plate with T-PBS, added horseradish peroxidase-labeled IgG and shaken at 37° C. for 0.5 hours. After washing the plate again, added 2 mg/mL of OPD colorimetric solution and incubated at 25° C. in the dark for 1 minutes to 10 minutes. […] The IC50 values were obtained from the inhibition curve analysis.

[2] = biological target: T2, EGFR^19del/T790M/C797S (Homo sapiens, UniProt P00533, T790M/C797S, form not given); assay: ELISA kinase activity inhibition, EGFR 19del/T790M/C797S; details: ATP 5 μM, read-out: The average IC50 value (nM) for inhibiting the activity of different tyrosine kinases, EGFR^19del/T790M/C797S
T2 construct: fused on or other part: Probably a GST tag on the cytoplasmic fragment, as in the vendor's product
Procedure: as §1, §2, §3

[3] = biological target: EGFR^L858R/T790M/C797S (Homo sapiens, UniProt P00533, C797S/L858R/T790M); assay: ELISA kinase activity inhibition, EGFR L858R/T790M/C797S; details: ATP 5 μM, read-out: The average IC50 value (nM) for inhibiting the activity of different tyrosine kinases, EGFR^L858R/T790M/C797S
Procedure: as §2, §3

EGFR^L858R/T790M/C797S, sequence (P00533 25-1210 T790M/C797S/L858R): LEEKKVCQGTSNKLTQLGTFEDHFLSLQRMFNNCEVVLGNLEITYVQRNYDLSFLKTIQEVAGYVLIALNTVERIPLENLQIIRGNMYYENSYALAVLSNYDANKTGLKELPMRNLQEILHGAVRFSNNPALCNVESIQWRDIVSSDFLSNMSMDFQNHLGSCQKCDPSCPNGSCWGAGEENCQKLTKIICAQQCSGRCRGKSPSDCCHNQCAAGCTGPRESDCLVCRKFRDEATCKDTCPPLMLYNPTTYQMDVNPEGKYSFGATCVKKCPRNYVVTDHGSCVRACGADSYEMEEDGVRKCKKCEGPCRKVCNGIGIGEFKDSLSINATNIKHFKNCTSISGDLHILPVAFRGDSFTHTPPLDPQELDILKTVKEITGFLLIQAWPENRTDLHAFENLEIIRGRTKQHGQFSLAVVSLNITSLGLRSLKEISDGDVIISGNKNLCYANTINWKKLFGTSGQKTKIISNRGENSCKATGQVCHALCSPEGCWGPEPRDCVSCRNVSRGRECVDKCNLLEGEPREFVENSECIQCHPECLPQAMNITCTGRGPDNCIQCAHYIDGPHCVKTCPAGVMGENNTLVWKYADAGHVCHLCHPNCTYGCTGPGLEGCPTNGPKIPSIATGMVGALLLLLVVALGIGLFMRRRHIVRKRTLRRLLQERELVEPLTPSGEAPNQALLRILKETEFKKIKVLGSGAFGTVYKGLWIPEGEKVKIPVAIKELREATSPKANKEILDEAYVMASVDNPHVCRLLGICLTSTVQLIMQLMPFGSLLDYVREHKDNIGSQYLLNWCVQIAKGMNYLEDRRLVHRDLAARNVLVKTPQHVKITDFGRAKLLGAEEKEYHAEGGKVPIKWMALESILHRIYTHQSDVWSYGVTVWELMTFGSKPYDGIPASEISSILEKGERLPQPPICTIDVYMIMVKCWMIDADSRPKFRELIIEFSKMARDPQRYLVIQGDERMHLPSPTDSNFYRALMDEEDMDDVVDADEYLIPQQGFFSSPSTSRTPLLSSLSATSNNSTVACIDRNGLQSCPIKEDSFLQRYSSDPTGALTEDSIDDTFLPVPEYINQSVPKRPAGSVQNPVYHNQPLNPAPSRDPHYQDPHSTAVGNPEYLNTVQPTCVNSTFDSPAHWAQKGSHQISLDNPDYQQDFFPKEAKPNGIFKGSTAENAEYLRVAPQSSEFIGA
T2 sequence (P00533 with tags, fused parts or gaps DEL746-750/T790M/C797S, form open): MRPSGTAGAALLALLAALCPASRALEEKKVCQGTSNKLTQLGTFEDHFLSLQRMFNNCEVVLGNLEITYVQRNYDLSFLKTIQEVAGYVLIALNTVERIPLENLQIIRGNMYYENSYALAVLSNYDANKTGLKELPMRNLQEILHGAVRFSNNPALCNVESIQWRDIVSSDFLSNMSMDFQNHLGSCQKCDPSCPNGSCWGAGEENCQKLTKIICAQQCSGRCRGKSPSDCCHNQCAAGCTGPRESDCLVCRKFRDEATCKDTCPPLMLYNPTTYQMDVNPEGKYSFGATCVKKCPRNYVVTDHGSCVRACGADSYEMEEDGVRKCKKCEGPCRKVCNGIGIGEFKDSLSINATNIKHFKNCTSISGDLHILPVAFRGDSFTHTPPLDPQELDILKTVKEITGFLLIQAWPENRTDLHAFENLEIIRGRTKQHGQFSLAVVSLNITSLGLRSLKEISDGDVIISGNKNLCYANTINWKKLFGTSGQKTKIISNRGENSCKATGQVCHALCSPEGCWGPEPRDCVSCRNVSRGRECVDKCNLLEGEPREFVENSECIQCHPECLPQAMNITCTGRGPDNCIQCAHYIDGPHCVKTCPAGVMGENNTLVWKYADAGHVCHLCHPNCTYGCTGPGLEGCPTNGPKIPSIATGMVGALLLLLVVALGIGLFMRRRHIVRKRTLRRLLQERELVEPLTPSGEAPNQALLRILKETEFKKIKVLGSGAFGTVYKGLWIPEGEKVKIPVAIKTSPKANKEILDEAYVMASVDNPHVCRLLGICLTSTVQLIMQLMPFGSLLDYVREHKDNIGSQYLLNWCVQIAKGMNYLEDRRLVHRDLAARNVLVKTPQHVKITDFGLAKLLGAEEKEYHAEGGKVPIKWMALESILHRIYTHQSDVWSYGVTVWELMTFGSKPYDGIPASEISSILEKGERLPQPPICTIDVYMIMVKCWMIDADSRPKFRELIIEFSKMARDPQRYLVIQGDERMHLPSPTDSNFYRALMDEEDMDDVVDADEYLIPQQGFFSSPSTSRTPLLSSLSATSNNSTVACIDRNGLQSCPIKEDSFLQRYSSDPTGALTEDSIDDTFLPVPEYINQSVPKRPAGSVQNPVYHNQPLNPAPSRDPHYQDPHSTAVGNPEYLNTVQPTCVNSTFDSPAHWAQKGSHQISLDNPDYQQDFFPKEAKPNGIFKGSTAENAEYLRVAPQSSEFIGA
T1 sequence (P00533 25-1210): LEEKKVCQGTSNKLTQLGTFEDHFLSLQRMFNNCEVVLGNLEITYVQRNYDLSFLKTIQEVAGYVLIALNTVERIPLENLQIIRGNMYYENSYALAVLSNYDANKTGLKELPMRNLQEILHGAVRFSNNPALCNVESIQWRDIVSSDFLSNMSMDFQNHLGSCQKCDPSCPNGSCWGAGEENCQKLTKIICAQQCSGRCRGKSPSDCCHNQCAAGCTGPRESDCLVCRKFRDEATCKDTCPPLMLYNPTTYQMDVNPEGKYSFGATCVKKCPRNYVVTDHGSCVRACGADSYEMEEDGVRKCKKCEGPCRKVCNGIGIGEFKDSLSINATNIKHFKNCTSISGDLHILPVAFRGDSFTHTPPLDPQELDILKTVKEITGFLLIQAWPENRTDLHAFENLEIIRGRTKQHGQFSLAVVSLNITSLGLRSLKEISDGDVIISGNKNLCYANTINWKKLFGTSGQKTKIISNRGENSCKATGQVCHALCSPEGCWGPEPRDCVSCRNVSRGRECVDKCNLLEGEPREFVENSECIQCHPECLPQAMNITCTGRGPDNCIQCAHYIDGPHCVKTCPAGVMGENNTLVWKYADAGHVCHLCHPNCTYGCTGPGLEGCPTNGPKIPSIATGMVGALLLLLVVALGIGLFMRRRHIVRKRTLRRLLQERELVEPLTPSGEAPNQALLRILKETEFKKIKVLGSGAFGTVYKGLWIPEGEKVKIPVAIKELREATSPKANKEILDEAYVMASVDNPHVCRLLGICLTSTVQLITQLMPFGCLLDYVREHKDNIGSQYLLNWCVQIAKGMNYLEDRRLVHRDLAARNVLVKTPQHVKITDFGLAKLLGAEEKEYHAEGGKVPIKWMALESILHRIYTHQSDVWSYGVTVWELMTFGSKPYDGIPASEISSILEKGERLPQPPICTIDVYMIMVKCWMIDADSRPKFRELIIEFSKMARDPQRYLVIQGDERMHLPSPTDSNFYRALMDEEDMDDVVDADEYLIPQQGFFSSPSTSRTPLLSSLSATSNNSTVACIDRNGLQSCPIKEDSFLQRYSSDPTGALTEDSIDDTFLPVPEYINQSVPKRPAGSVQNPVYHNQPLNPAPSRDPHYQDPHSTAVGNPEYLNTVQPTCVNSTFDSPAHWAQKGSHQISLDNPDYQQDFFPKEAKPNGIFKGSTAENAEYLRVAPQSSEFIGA

IC50 [1] [nM]	IC50 [2] [nM]	IC50 [3] [nM]	Structure (SMILES)
> 1000	8.2		CCS(=O)(=O)n1cc2c3ccc(cc31)OCCCn1ccc(n1)-c1cc(c(C(C)C)cc1N1CCOCC1)Nc1nccc-2n1 [FBH-3-48, (Z)-1^1-(ethylsulfonyl)-4^6-isopropyl-4^4-morpholino-1^1H,5^1H-9-oxa-3-aza-1(3,6)-indole-2(4,2)-pyrimidine-5(4,1)-pyrazole-4(1,3)-benzenacyclononaphane]
> 1000	33		CCS(=O)(=O)n1cc2c3ccc(cc31)OCCCn1ccc(n1)-c1cc(c(C3CC3)cc1N1CCOCC1)Nc1nccc-2n1 [FBH-3-66, (Z)-4^6-cyclopropyl-1^1-(ethylsulfonyl)-4^4-morpholino-1^1H,5^1H-9-oxa-3-aza-1(3,6)-indole-2(4,2)-pyrimidine-5(4,1)-pyrazol-4(1,3)-benzenacyclononaphane]
> 1000	267		CCS(=O)(=O)n1cc2c3ccc(cc31)OCCCn1ccc(n1)-c1cc(c(OC(C)C)cc1N1CCOCC1)Nc1nccc-2n1 [FBH-3-84, (Z)-1^1-(ethylsulfonyl)-4^6-isopropoxy-4^4-morpholinyl-1^1H,5^1H-9-oxa-3-aza-1(3,6)-indole-2(4,2)-pyrimidin-5(4,1)-pyrazol-4(1,3)-benzocyclononaphthalene]
> 1000		159	CCS(=O)(=O)n1cc2c3ccc(cc31)OCCCn1ccc(n1)-c1cc(c(C(F)(F)F)cc1N1CCOCC1)Nc1nccc-2n1 [FBH-3-92, (Z)-1^1-(ethylsulfonyl)-4^4-morpholinyl-4^6-(trifluoromethyl)-1^1H,5^1H-9-oxa-3-aza-1(3,6)-indole-2(4,2)-pyrimidine-5(4,1)-pyrazole-4(1,3)-benzenacyclononaphane]
> 1000		147	CCS(=O)(=O)n1cc2c3ccc(cc31)OCCCn1ccc(n1)-c1cc(c(OC)cc1N1CCOCC1)Nc1nccc-2n1 [FBH-4-6, (E)-1^1-(ethylsulfonyl)-4^6-methoxy-4^4-morpholinyl-1^1H,5^1H-9-oxa-3-aza-1(3,6)-indole-2(4,2)-pyrimidine-5(3,1)-pyrazole-4(1,3)-benzocyclononaphthalene]
189		98.5	CCS(=O)(=O)n1cc2c3ccc(cc31)OCCCn1ccc(n1)-c1cc(c(OC3CC3)cc1N1CCOCC1)Nc1nccc-2n1 [FBH-4-24, (Z)-4^6-cyclopropoxy-1^1-(ethylsulfonyl)-4^4-morpholinyl-1^1H,5^1H-9-oxa-3-aza-1(3,6)-indole-2(4,2)-pyrimidine-5(4,1)-pyrazole-4(1,3)-benzocyclononaphthalene]
> 1000		135	CCS(=O)(=O)n1cc2c3ccc(cc31)OCCCn1ccc(n1)-c1cc(c(OC(F)(F)F)cc1N1CCOCC1)Nc1nccc-2n1 [FBH-4-48, (Z)-1^1-(ethylsulfonyl)-4^4-morpholinyl-4^6-(trifluoromethoxy)-1^1H,5^1H-9-oxa-3-aza-1(3,6)-indole-2(4,2)-pyrimidine-5(4,1)-pyrazole-4(1,3)-benzocyclononaphthalene]
> 1000	129	167	CCS(=O)(=O)n1cc2c3ccc(cc31)OCCCn1cc(cn1)-c1cc(c(C)cc1N1CCOCC1)Nc1ncc(Cl)c-2n1 [HC916, 2^5-chloro-1^1-ethylsulfonyl-4^6-methyl-4^4-morpholino-1^1H,5^1H-9-oxa-3-aza-1(3,6)-indole-2(4,2)-pyrimidin-5(4,1)-pyrazol-4(1,3)-benzenacyclononaphane]
> 1000	6.8		Cc1cc(N2CCOCC2)c2cc1Nc1ncc(Cl)c(n1)-c1cn(C)c3cc(ccc13)OCCCn1cc-2cn1 [HC8991, 2^5-Chloro-1^1,4^6-dimethyl-4^4-morpholino-1^1H,5^1H-9-oxa-3-aza-1(3,6)-Indole-2(4,2)-Pyrimidin-5(4,1)-Pyrazolol-4(1,3)-benzenacyclononaphane]
> 1000	82.3	183	CCS(=O)(=O)n1cc2c3ccc(cc31)OCCCn1cc(cn1)-c1cc(cc(C3CCCC3)c1N1CCOCC1)Nc1ncc(Cl)c-2n1 [HC9001, 2^5-chloro-4^5-cyclopentyl-1^1-ethylsulfonyl-4^4-morpholino-1^1H,5^1H-9-oxa-3-aza-1(3,6)-indole-2(4,2)-pyrimidin-5(4,1)-pyrazol-4(1,3)-benzenacyclononaphane]
> 1000	24.7	59	C=C(C)c1cc2cc(c1N1CCOCC1)-c1cnn(c1)CCCOc1ccc3c(cn(S(=O)(=O)CC)c3c1)-c1nc(ncc1Cl)N2 [HC9002, 2^5-Chloro-1^1-ethylsulfonyl-4^4-morpholino-4^5-propenyl-1^1H,5^1H-9-oxa-3-aza-1(3,6)-indole-2(4,2)-pyrimidine-5(4,1)-pyrazole-4(1,3)-benzenacyclononaphane]
> 1000	29	69.7	CCS(=O)(=O)n1cc2c3ccc(cc31)OCCCn1cc(cn1)-c1cc(cc(C=C(C)C)c1N1CCOCC1)Nc1ncc(Cl)c-2n1 [HC9003, 2^5-Chloro-1^1-ethylsulfonyl-4^4-morpholino-4^5-2-methylpropan-1-en-1-yl-1^1H,5^1H-9-oxa-3-aza-1(3,6)-indole-2(4,2)-pyrimidine-5(4,1)-pyrazole-4(1,3)-benzenacyclononaphane]
> 1000	195	384	CCS(=O)(=O)n1cc2c3ccc(cc31)OCCCn1cc(cn1)-c1cc(cc(/C=C/C(C)(C)C)c1N1CCOCC1)Nc1ncc(Cl)c-2n1 [HC9004]
> 1000	30.5	30.5	CCS(=O)(=O)n1cc2c3ccc(cc31)OCC(C)Cn1cc(cn1)-c1cc(ccc1N1CCOCC1)Nc1ncc(Cl)c-2n1 (centres unmarked) [HC9281, 2^5-chloro-1^1-ethylsulfonyl-7-methyl-4^4-morpholino-1^1H, 5^1H-9-oxa-3-aza-1(3,6)-indole-2(4,2)-pyrimidine-5(4,1)-pyrazole-4(1,3)-benzenacyclononaphane]
> 1000	45.8	45.8	CCS(=O)(=O)n1cc2c3ccc(cc31)OCC1(CC1)Cn1cc(cn1)-c1cc(ccc1N1CCOCC1)Nc1ncc(Cl)c-2n1 [HC9282, (Z)-5′-Chloro-1′(Ethylsulfonyl)-4′-morpholino spiro [Cyclopropane-1,7′-9-oxa-3-aza-1(3,6)-indole-2(4,2)-pyrimidine-5(4,1)-pyrazolol-4(1,3)-benzenacyclononaphane]]
154	35.1	35.1	CCS(=O)(=O)n1cc2c3ccc(cc31)OCCCn1cc(cn1)-c1cc(c(OC)cc1N1CCOCC1)Nc1ncc(Cl)c-2n1 [HC9284, 2^5-Chloro-1^1-ethylsulfonyl-4^6-methoxy-4^4-morpholin-1^1H,5^1H-9-oxa-3-aza-1(3,6)-indole-2(4,2)-pyrimidine-5(4,1)-pyrazole-4(1,3)-benzenacyclononaphane]
898	2.9	1.4	CCS(=O)(=O)n1cc2c3ccc(cc31)OCCCn1cc(cn1)-c1cc(c(OC)cc1N1CCN(C)CC1)Nc1nccc-2n1 [HC9592, (Z)-1^1-ethylsulfonyl-4^6-methoxy-4^4-(4-methylpiperazin-1-yl)-1^1H,5^1H-9-oxa-3-aza-1(3,6)-indole-2(4,2)-pyrimidine-5(4,1) pyrazole-4(1,3)-benzenacyclononaphane]
> 1000	192	343	CCS(=O)(=O)n1cc2c3ccc(cc31)OCCCn1cc(cn1)-c1cc(cc(CC(C)C)c1N1CCOCC1)Nc1ncc(Cl)c-2n1 [HC90032, 2^5-chloro-1^1-ethylsulfonyl-4^4-morpholino-4^5-2-methylpropyl-1^1H,5^1H-9-oxa-3-aza-1(3,6)-indole-2(4,2)-pyrimidin-5(4,1)-pyrazol-4(1,3)-benzenacyclononaphane]
146		57.8	CCS(=O)(=O)n1cc2c3ccc(cc31)OCCCn1cc(cn1)-c1cc(c(OC)cc1N1CCOC(C)C1)Nc1nccc-2n1 (centres unmarked) [WQX-2-43, (Z)-1^1-(Ethylsulfonyl)-4^6-methoxy-4^4-(2-methylmorpholinyl)-1^1H,5^1H-9-oxa-3-aza-1(3,6)-indol-2(4,2)-pyrimidin-5(4,1)-pyrazol-4(1,3)-benzocyclononane]
255		102	CCS(=O)(=O)n1cc2c3ccc(cc31)OCCCn1cc(cn1)-c1cc(c(OC)cc1N1CCOCC1)Nc1ncc(F)c-2n1 [WQX-2-79, (Z)-1^1-(ethylsulfonyl)-2^5-fluoro-4^6-methoxy-4^4-morpholinyl-1^1H,5^1H-9-oxa-3-aza-1(3,6)-indole-2(4,2)-pyrimidin-5(4,1)-pyrazol-4(1,3)-benzenacyclononaphane]
